Measured values taken from ChEMBL document CHEMBL1914289, “Discovery of novel Cobactin-T based matrix metalloproteinase inhibitors via a ring closing metathesis strategy” (Bioorg Med Chem Lett, 2011).

Tests used:
[1] = target: 72 kDa type IV collagenase (Homo sapiens, UniProt P08253); test: Inhibition of full length human MMP2 (amino acids 1 to 660) using acetyl-Cys(Eu)-Pro-Leu-Gly-Leu-Lys-(QSY7)-Ala-Arg-amide as substrate preincubated for 1 hrs before substrate addition measured after 15 mins by fluorimetry
Chain of 72 kDa type IV collagenase (P08253 whole entry, the tested form may be a part): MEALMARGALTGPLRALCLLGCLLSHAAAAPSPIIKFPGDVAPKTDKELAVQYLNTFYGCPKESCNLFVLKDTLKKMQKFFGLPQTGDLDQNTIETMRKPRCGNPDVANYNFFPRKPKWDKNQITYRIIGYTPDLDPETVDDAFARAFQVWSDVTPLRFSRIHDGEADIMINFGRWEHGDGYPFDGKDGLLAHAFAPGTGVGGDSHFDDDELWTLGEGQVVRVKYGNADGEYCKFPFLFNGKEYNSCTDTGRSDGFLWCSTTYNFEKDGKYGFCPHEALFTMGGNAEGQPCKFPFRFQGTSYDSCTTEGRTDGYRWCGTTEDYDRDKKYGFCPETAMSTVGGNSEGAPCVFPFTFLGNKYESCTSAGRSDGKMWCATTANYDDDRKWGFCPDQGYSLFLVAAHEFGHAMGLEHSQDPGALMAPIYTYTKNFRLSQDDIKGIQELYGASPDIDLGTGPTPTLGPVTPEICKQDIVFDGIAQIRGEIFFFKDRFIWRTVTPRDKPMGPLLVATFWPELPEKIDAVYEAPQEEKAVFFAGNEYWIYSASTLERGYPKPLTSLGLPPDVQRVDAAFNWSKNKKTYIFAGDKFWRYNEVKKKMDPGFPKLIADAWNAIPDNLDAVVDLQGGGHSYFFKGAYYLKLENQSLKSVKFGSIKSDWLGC

[2] = target: Matrix metalloproteinase-9 (Homo sapiens, UniProt P14780); test: Inhibition of human MMP9 catalytic domain (amino acids 107 to 446) using acetyl-Cys(Eu)-Pro-Leu-Gly-Leu-Lys-(QSY7)-Ala-Arg-amide as substrate preincubated for 1 hrs before substrate addition measured after 15 mins by fluorimetry
Chain of Matrix metalloproteinase-9 (P14780 whole entry, the tested form may be a part): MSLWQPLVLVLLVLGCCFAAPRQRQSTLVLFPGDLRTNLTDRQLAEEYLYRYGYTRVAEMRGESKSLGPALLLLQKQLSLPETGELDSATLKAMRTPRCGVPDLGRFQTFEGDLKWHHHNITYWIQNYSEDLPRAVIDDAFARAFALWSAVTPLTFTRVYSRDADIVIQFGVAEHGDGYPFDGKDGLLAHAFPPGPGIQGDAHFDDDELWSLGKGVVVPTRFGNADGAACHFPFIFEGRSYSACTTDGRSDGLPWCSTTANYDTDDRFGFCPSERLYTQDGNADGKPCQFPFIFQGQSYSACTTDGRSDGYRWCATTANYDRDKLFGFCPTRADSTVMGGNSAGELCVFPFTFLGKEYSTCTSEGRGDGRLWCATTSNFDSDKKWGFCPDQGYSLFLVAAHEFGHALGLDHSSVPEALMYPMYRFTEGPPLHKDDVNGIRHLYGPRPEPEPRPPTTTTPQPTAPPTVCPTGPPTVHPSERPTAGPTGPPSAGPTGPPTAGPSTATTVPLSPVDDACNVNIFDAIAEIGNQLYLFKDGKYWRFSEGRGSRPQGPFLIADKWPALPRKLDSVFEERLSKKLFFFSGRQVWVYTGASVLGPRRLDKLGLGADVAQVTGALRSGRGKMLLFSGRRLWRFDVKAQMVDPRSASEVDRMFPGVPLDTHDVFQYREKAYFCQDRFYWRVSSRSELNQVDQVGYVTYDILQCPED

[3] = target: MMP-2/MMP-9 (Homo sapiens) (UniProt P08253+P14780); test: Selectivity ratio of IC50 for full length human MMP2 (amino acids 1 to 660) to IC50 for human MMP9 catalytic domain (amino acids 107 to 446)
Interstitial collagenase = target: T1, Interstitial collagenase (Homo sapiens, UniProt P03956); test: Inhibition of human MMP1 catalytic domain (amino acids 100 to 262) using acetyl-Cys(Eu)-Pro-Leu-Gly-Leu-Lys-(QSY7)-Ala-Arg-amide as substrate preincubated for 1 hrs before substrate addition measured after 15 mins by fluorimetry
T1 sequence (P03956 whole entry): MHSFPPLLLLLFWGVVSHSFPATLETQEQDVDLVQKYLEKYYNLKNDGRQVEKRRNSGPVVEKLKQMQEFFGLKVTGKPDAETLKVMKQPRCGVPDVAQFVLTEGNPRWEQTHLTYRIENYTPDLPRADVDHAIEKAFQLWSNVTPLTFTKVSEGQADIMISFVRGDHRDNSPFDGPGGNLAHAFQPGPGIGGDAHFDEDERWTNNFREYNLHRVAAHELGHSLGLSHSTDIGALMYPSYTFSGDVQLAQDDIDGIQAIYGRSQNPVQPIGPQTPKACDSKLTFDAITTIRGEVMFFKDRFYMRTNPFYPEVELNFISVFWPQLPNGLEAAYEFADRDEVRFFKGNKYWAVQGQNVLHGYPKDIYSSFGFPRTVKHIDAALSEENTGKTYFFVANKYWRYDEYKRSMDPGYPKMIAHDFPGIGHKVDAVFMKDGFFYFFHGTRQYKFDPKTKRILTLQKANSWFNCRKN

Stromelysin-1 = Stromelysin-1 (Homo sapiens, UniProt P08254); test: Inhibition of human MMP3 catalytic domain (amino acids 100 to 265) using acetyl-Cys(Eu)-Pro-Leu-Gly-Leu-Lys-(QSY7)-Ala-Arg-amide as substrate preincubated for 1 hrs before substrate addition measured after 15 mins by fluorimetry
Chain of Stromelysin-1 (P08254 whole entry, the tested form may be a part): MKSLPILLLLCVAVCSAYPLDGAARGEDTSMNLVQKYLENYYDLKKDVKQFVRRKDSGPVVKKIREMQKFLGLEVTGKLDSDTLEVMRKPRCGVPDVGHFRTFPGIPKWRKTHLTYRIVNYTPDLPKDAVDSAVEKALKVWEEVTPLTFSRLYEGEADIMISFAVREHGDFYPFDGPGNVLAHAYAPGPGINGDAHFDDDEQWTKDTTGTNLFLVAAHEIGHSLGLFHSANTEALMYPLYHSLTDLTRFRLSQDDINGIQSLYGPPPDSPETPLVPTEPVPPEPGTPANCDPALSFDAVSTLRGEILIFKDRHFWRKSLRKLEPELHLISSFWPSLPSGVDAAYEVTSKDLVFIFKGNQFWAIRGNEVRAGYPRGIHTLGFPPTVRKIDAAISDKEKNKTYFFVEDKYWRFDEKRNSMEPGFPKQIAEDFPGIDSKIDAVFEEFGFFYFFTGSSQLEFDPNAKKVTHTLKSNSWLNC

Collagenase 3 = Collagenase 3 (Homo sapiens, UniProt P45452); test: Inhibition of human MMP13 catalytic domain (amino acids 103 to 268) using acetyl-Cys(Eu)-Pro-Leu-Gly-Leu-Lys-(QSY7)-Ala-Arg-amide as substrate preincubated for 1 hrs before substrate addition measured after 15 mins by fluorimetry
Homo sapiens [4] = species: Homo sapiens; test: Selectivity ratio of IC50 for human MMP3 catalytic domain (amino acids 100 to 265) to IC50 for full length human MMP2 (amino acids 1 to 660)
Homo sapiens [5] = species: Homo sapiens; test: Selectivity ratio of IC50 for human MMP3 catalytic domain (amino acids 100 to 265) to IC50 for human MMP9 catalytic domain (amino acids 107 to 446)
[6] = Cmax in rat at 0.5 mg/kg, iv; type: ADME, organism-based; set-up: dose 0.5 mg/kg, route intravenous; conditions: in vivo
[7] = Half life in rat at 0.5 mg/kg, iv; type: ADME, organism-based; set-up: dose 0.5 mg/kg, route intravenous; conditions: in vivo
[8] = (§1) AUC in rat at 0.5 mg/kg, iv; type: ADME, organism-based, Plasma; set-up: dose 0.5 mg/kg, route intravenous; conditions: plasma
[9] = Volume of distribution at steady state in rat at 0.5 mg/kg, iv; type: ADME, organism-based; set-up: dose 0.5 mg/kg, route intravenous; conditions: in vivo, read-out: Vdss
[10] = Clearance in rat at 0.5 mg/kg, iv; type: ADME, organism-based; set-up: dose 0.5 mg/kg, route intravenous; conditions: in vivo
[11] = target: Voltage-gated inwardly rectifying potassium channel KCNH2 (Homo sapiens, UniProt Q12809); test: Binding affinity to human Erg at 10 uM
Chain of Voltage-gated inwardly rectifying potassium channel KCNH2 (Q12809 whole entry): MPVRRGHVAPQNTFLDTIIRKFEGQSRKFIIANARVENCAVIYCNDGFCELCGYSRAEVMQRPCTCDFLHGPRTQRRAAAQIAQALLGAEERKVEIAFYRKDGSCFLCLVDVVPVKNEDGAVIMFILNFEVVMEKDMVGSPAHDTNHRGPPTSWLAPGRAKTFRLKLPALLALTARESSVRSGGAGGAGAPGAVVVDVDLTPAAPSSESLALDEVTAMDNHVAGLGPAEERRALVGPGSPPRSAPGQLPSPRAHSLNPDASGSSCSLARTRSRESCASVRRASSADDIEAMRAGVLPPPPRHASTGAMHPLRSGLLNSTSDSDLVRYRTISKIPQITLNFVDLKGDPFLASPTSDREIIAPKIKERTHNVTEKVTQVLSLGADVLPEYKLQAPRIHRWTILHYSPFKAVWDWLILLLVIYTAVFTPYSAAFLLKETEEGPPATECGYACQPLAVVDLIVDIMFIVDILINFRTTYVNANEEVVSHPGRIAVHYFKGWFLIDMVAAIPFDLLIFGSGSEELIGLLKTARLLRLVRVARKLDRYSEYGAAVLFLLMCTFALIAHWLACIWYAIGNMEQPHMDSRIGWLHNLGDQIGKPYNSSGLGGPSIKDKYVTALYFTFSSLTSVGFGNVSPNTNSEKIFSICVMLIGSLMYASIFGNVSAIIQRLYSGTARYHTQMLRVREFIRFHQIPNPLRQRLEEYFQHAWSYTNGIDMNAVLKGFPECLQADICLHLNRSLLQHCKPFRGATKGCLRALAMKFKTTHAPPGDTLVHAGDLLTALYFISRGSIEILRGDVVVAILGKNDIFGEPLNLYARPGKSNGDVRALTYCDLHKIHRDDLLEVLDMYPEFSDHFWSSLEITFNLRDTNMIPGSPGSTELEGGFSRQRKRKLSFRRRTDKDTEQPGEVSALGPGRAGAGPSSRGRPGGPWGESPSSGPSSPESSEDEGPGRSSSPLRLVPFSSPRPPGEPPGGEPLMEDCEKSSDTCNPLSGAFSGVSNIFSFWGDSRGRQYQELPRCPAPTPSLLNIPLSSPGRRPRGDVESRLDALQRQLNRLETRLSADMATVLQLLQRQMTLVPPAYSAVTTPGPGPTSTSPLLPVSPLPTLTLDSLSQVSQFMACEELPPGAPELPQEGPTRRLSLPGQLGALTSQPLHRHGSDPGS

CYP3A4 = CYP3A4 (Homo sapiens, UniProt P08684); test: Inhibition of CYP 3A4 at 1 uM; type: ADME
Chain of CYP3A4 (P08684 whole entry): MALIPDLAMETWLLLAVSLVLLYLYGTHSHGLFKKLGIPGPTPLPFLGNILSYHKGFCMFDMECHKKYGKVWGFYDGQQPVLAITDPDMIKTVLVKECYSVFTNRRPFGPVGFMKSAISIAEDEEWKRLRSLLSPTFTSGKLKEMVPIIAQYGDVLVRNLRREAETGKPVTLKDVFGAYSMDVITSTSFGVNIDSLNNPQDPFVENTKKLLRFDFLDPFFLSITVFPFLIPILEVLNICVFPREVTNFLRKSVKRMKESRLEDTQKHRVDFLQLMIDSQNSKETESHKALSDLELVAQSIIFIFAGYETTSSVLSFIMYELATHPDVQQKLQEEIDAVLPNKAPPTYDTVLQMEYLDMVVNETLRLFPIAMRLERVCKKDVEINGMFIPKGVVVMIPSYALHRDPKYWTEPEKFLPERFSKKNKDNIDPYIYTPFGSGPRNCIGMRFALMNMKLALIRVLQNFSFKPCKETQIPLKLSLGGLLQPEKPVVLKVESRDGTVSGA

CYP2D6 = CYP2D6 (Homo sapiens, UniProt P10635); test: Inhibition of CYP 2D6 at 1 uM; type: ADME
Chain of CYP2D6 (P10635 whole entry): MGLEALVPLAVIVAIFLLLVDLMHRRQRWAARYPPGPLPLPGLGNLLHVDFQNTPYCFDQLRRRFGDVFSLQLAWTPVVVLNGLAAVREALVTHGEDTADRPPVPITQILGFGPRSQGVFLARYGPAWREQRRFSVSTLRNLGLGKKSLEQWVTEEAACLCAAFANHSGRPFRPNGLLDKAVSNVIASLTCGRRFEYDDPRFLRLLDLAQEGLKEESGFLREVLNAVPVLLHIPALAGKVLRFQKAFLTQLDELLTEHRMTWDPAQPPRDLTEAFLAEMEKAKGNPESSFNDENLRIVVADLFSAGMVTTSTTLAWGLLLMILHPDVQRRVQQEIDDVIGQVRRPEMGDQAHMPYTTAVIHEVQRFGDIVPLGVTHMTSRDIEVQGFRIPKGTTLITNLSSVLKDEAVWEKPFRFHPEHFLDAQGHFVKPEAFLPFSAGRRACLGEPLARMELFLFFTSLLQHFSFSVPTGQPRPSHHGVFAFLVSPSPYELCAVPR

Salmonella typhimurium = test: Induction of mutagenicity in Salmonella Typhimurium by AMES test; type: toxicity, organism-based; conditions: salmonella enterica subsp. enterica serovar typhimurium
Rattus norvegicus = test: as §1; type: ADME, organism-based, Plasma; set-up: dose 0.5 mg/kg, route intravenous; conditions: in vivo
[12] = Cmax in mouse at 10 mg/kg, po; type: ADME, organism-based; set-up: dose 10 mg/kg, route oral; conditions: in vivo
[13] = Half life in mouse at 10 mg/kg, po; type: ADME, organism-based; set-up: dose 10 mg/kg, route oral; conditions: in vivo

Work on O=C1[C@H](NS(=O)(=O)c2ccc(-c3ccc(Cl)cc3)cc2)CC=CCN1O yielded an IC50 [1] of 85 nM and an IC50 [2] of 1510 nM.
CC1=CC[C@@H](NS(=O)(=O)c2ccc(Oc3ccc(Cl)cc3)cc2)C(=O)N(O)C1 showed an IC50 [1] of 2 nM and an IC50 [2] of 1.3 nM.
Work on Cc1ccc(-c2ccc(S(=O)(=O)N(CCN3CCOCC3)[C@@H]3CC=CCN(O)C3=O)s2)cc1 yielded an IC50 [1] of 7 nM and an IC50 [2] of 11 nM.
In the case of O=C1[C@H](NS(=O)(=O)c2ccc(-c3ccc(Cl)cc3)s2)CC=CCN1O, the IC50 [1] is reported as 11 nM and the IC50 [2] is reported as 16 nM.
O=C1[C@H](NS(=O)(=O)c2ccc(Oc3ccncc3)cc2)CC=CCN1O showed an IC50 [1] of 3 nM and an IC50 [2] of 12 nM.
Work on Cc1ccc(-c2ccc(S(=O)(=O)N[C@@H]3CC=CCN(O)C3=O)s2)cc1 yielded an IC50 [1] of 4 nM and an IC50 [2] of 9 nM.
Cc1ccc(C#Cc2ccc(S(=O)(=O)N(CCN3CCOCC3)[C@@H]3CC=CCN(O)C3=O)s2)cc1 gave an IC50 [1] of 2.4 nM, an IC50 [2] of 0.8 nM and a Ratio IC50 [3] of 2.
For COc1ccc(-c2ccc(S(=O)(=O)N[C@@H]3CC=CCN(O)C3=O)s2)cc1, the IC50 [2] was 11 nM, the IC50 (Interstitial collagenase) was > 1000 nM and the IC50 (Stromelysin-1) was 493 nM. For the same compound, the IC50 (Collagenase 3) was 3 nM, the Ratio IC50 (Homo sapiens [4]) was 100 and the Ratio IC50 (Homo sapiens [5]) was 100.
With CN1CCN(CCN([C@@H]2CC=CCN(O)C2=O)S(=O)(=O)c2ccc(Oc3ccc(Cl)cc3)cc2)CC1 the Ratio IC50 [3] was 2.
In the case of O=C1[C@H](NS(=O)(=O)c2ccc(Oc3ccc(Cl)cc3)cc2)CC=C(CN2CCOCC2)CN1O, the IC50 [1] is reported as 0.53 nM, the IC50 [2] is reported as 0.46 nM and the IC50 (Interstitial collagenase) is reported as > 1000 nM. For the same compound, the IC50 (Stromelysin-1) was 39 nM, the IC50 (Collagenase 3) was 0.2 nM and the Ratio IC50 (Homo sapiens [4]) was 100. For the same compound, the Ratio IC50 (Homo sapiens [5]) was 100.
In the case of O=C1[C@H](NS(=O)(=O)c2ccc(Oc3ccc(Cl)cc3)cc2)CC=CCN1O, the IC50 [1] is reported as 0.57 nM, the IC50 [2] is reported as 0.58 nM and the IC50 (Interstitial collagenase) is reported as > 1000 nM. The IC50 (Stromelysin-1) was 86 nM, the IC50 (Collagenase 3) was 0.4 nM and the Ratio IC50 (Homo sapiens [4]) was 100. The Ratio IC50 (Homo sapiens [5]) was 100, the Cmax [6] was 4.6 µM and the half-life [7] was 14 h. It also gave an AUC [8] of 1230 ng·h/mL, a Vd [9] of 3.3 L/kg and a clearance [10] of 7 mL/min/kg. For the same compound, the Activity [11] was < 50%, the inhibition at 1 µM (CYP3A4) was < 50% and the inhibition at 1 µM (CYP2D6) was < 50%. For the same compound, the Activity (Salmonella typhimurium) was “Non-toxic”.
Work on O=C1[C@H](NS(=O)(=O)c2ccc(Oc3ccccc3)cc2)CC=CCN1O yielded an IC50 [1] of 1 nM and an IC50 [2] of 2 nM.
With O=C1[C@@H](NS(=O)(=O)c2ccc(Oc3ccc(Cl)cc3)cc2)CC=CCN1O the IC50 [1] was 1600 nM and the IC50 [2] was 1120 nM.
For O=C1[C@H](N(CCN2CCCCC2)S(=O)(=O)c2ccc(Oc3ccc(Cl)cc3)cc2)CC=CCN1O, the Ratio IC50 [3] was 2.
O=C(N[C@@H]1CC=CCN(O)C1=O)c1ccc(Oc2ccc(Cl)cc2)cc1 showed an IC50 [1] of 2320 nM and an IC50 [2] of 5090 nM.
In the case of COc1ccc(Oc2ccc(S(=O)(=O)N[C@@H]3CC=CCN(O)C3=O)cc2)cc1, the IC50 [1] is reported as 2 nM and the IC50 [2] is reported as 1 nM.
With O=C1[C@H](NS(=O)(=O)c2ccc(Oc3ccc(C(F)(F)F)cc3)cc2)CC=CCN1O the IC50 [1] was 2 nM and the IC50 [2] was 2 nM.
For O=C1[C@H](N(CCN2CCOCC2)S(=O)(=O)c2ccc(-c3ccc(Cl)cc3)s2)CC=CCN1O, the IC50 [1] was 16 nM and the IC50 [2] was 17 nM.
For O=C1[C@H](N(CCN2CCOCC2)S(=O)(=O)c2ccc(Oc3ccc(Cl)cc3)cc2)CC=CCN1O, the IC50 [1] was 0.39 nM, the IC50 [2] was 0.22 nM and the IC50 (Interstitial collagenase) was > 1000 nM. For the same compound, the IC50 (Stromelysin-1) was 90 nM, the IC50 (Collagenase 3) was 0.7 nM and the Ratio IC50 [3] was 2. The Ratio IC50 (Homo sapiens [4]) was 100, the Ratio IC50 (Homo sapiens [5]) was 100 and the Cmax [6] was 4.4 µM. The half-life [7] was 2 h, the AUC (Rattus norvegicus) was 1831 ng·h/mL and the Vd [9] was 1.4 L/kg. For the same compound, the Cmax [12] was 38.3 µM, the half-life [13] was 1 h and the Activity [11] was < 50%. For the same compound, the inhibition at 1 µM (CYP3A4) was < 50%, the inhibition at 1 µM (CYP2D6) was < 50% and the Activity (Salmonella typhimurium) was “Non-toxic”.
O=C1[C@H](NS(=O)(=O)c2ccc(Oc3ccc(Cl)cc3)cc2)CCCCN1O gave an IC50 [1] of 3.7 nM and an IC50 [2] of 5.9 nM.
With O=C1NCC=CC[C@H]1NS(=O)(=O)c1ccc(Oc2ccc(Cl)cc2)cc1 the IC50 [1] was > 1000 nM and the IC50 [2] was > 1000 nM.
